# From patent publication US5770383A, “Tricyclic retinoids, methods for their production and use” (Ligand Pharmaceuticals, Inc., priority 1995, dated 1998)
# How the values were obtained:
# RAR and RXR receptors = experiment: Co-transfection assay, RARs and RXRs taken together; format: cell-based
# Procedure: (§1) Utilizing the "cis-trans" or "co-transfection" assay described by Evans et al., Science, 240:889-95 (May 13, 1988), the disclosure of which is herein incorporated by reference, the retinoid compounds of the present invention were tested and found to have strong, specific activity as either selective RAR agonists, selective RXR agonists, or as pan-agonist activators of both RAR and RXR receptors. This assay is described in further detail in U.S. Pat. Nos. 4,981,784 and 5,071,773, the disclosures of which are incorporated herein by reference.
# (§2) The co-transfection assay provides a method for identifying functional agonists which mimic, or antagonists which inhibit, the effect of native hormones, and quantifying their activity for responsive IR proteins. In this regard, the co-transfection assay mimics an in vivo system in the laboratory. Importantly, activity in the co-transfection assay correlates very well with known in vivo activity, such that the co-transfection assay functions as a qualitative and quantitative predictor of a tested compounds Ln vivo pharmacology. See, e.g., T. Berger et al. 41 J. Steroid Biochem. Molec. Biol. 733 (1992), the disclosure of which is herein incorporated by reference.
# (§3) In the co-transfection assay, a cloned cDNA for an IR (e.g., human RARα, RARβ, RXRγ) under the control of a constitutive promoter (e.g., the SV 40 promoter) is introduced by transfection (a procedure to induce cells to take up foreign genes) into a background cell substantially devoid of endogenous IRs. This introduced gene directs the recipient cells to make the IR protein of interest. A second gene is also introduced (co-transfected) into the same cells in conjunction with the IR gene. This second gene, comprising the cDNA for a reporter protein, such as firefly luciferase (LUC), controlled by an appropriate hormone responsive promoter containing a hormone response element (HRE). This reporter plasmid functions as a reporter for the transcription-modulating activity of the target IR. Thus, the reporter acts as a surrogate for the products (mRNA then protein) normally expressed by a gene under control of the target receptor and its native hormone.
# (§4) The co-transfection assay can detect small molecule agonists or antagonists of target IRs. Exposing the transfected cells to an agonist ligand compound increases reporter activity in the transfected cells. This activity can be conveniently measured, e.g., by increasing luciferase production, which reflects compound-dependent, IR-mediated increases in reporter transcription. […] . Increasing concentrations of a suspected antagonist will decrease the reporter signal (e.g., luciferase production). The co-transfection assay is therefore useful to detect both agonists and antagonists of specific IRs. Furthermore, it determines not only whether a compound interacts with a particular IR, but whether this interaction mimics (agonizes) or blocks (antagonizes) the effects of the native regulatory molecules on target gene expression, as well as the specificity and strength of this interaction.
# To determine RAR and/or RXR agonist activity of the compounds of the present invention, the CV-1 cells were transiently transfected by calcium phosphate coprecipitation according to the procedure of Berger et al., 41 J.Steroid Biochem. Mol. Biol., 733 (1992) with the following receptor expressing plasmids: pRShRARα: Giguere et al., 330 Nature, 624 (1987); pRShRARβ and pRShRARγ, Ishikawa et al., 4 Mol. Endocrin., 837 (1990); pRShRXRα, Mangelsdorf et al., 345 Nature, 224 (1990); and pRSmRXRβ and pRSmRXRγ, Mangelsdorf et al., 6 Genes & Devel., 329 (1992), the disclosures of which are herein incorporated by reference.
# RARs = experiment: Co-transfection assay, RARs taken together; format: cell-based; settings: Table 1
# Procedure: as §1, §2, §3
# as §4, with “Furthermore, it determines not only whether a compound interacts with a particular IR, but whether this interaction mimics (agonizes) or blocks (antagonizes) the effects of the native regulatory molecules on target gene expression, as well as the specificity and strength of this interaction.” left out
# TPA induction of ODC = settings: literature; cited from earlier work
# AML-193 cell line = experiment: Incorporation of 3H-thymidine, AML-193; settings: 96 h, read-out: TdR IC50
Structure (SMILES),selectivity / potency profile on RARs and RXRs in words (RAR and RXR receptors),RAR activity in words (RARs),"effect on ODC activity, in words (TPA induction of ODC)",IC50 (AML-193 cell line) [nM]
"CC(/C=C/CC1CCCc2cc3c(cc21)C(C)(C)CCC3(C)C)=C\C(=O)O (racemic) [Compound 124b, (2E,4E)-3-Methyl-6-(1,2,3,4,5,6,7,8-octahydro-5,5,8,8-tetramethylanthracen-1-yl)hexa-2,4-dienoic acid]",superior potency profiles to that of the known RXR active pan-agonist compound 9-cis retinoic acid,–,–,–
"CC(/C=C/C=C1/CCCc2cc3c(cc21)C(C)(C)CCC3(C)C)=C\C(=O)O [Compound 101b, (2E,4E)-3-Methyl-6-[(Z)-3,4,5,6,7,8-hexahydro-5,5,8,8-tetramethyl-2H-anthracen-1-ylidene]hexa-2,4-dienoic acid]",superior potency profiles to that of the known RXR active pan-agonist compound 9-cis retinoic acid,extremely potent RAR active,–,–
"CC(/C=C/C=C1/CC(C)(C)Oc2cc3c(cc21)C(C)(C)CCC3(C)C)=C\C(=O)O [Compound 104b, (2E,4E)-3-Methyl-6-(2,3,6,7,8,9-hexahydro-2,2,6,6,9,9-hexamethylbenzo[b]-chromen-4-ylidene)-hexa-2,4-dienoic acid]",potent and selective RXR compound,–,–,–
"CC(/C=C/C=C1\CCCc2cc3c(cc21)C(C)(C)CCC3(C)C)=C\C(=O)O [Compound 109b, (2E,4E)-3-Methyl-6-[(E)-3,4,5,6,7,8-hexahydro-5,5,8,8-tetramethyl-2H-anthracen-1-ylidene]hexa-2,4-dienoic acid]",RAR selective,extremely potent RAR active,–,–
"CC(/C=C/C=C1\CCOc2cc3c(cc21)C(C)(C)CCC3(C)C)=C\C(=O)O [Compound 119b, (2E,4E)-3-Methyl-6-[(E)-2,3,6,7,8,9-hexahydro-6,6,9,9-tetramethyl-benzo[g]chromen-4-ylidene]hexa-2,4-dienoic acid]",RAR selective,extremely potent RAR active,–,–
CC(/C=C/C=C1/CCOc2cc3c(cc21)C(C)(C)CCC3(C)C)=C\C(=O)O [Compound 144b],superior potency profiles to that of the known RXR active pan-agonist compound 9-cis retinoic acid,extremely potent RAR active,–,–
"CCCCCCCCCCCCCC(=O)O[C@@H]1[C@@H](C)[C@@]2(O)[C@@H](C=C(CO)C[C@]3(O)C(=O)C(C)=C[C@@H]23)[C@@H]2C(C)(C)[C@]12OC(C)=O [TPA, 12-0-tetradecanoylphorbor-13-acetate]",–,–,induces ODC activity,–
"C/C(=C\c1ccc(C(=O)O)cc1)c1ccc2c(c1)C(C)(C)CCC2(C)C [TTNPB, (E)-4-[2-(5,6,7,8-tetrahydro-5,5,8,8-tetramethyl-2-napthalenyl)-1-propenyl]benzoic acid]",–,–,–,0.1
CC1=C(/C=C/C(C)=C/C=C/C(C)=C/C(=O)O)C(C)(C)CCC1 [retinoic acid],–,–,inhibits this induction of ODC by TPA,–
